Values of other authors in PMC13427755 (Nature Communications, 2026).
Where a SMILES comes first, the peptide text is derived from it.

Legend:
Sprague Dawley rats = conditions: 28-day GLP inhalation study, delivered doses 18.4, 58.5 and 109.3 mg/kg/day, ref Investigator Brochure (IB); cited from earlier work
Procedure: (§1) Pivotal 28-day Good Laboratory Practice (GLP) toxicity studies were performed in rats and dogs. These studies were designed such that the high dose levels would achieve at least a 50-fold margin over the proposed high clinical dose as recommended in International Council for Harmonisation (ICH)-M3(R2) guidelines.

dog = conditions: 28-day GLP study, delivered doses 8.9, 27.1 and 46.1 mg/kg/day, ref Investigator Brochure (IB); cited from earlier work
Procedure: as §1

Healthy Adult Subjects = conditions: cited from earlier work
Procedure: Pivotal 28-day Good Laboratory Practice (GLP) toxicity studies were performed in rats and dogs. These studies were designed such that the high dose levels would achieve at least a 50-fold margin over the proposed high clinical dose as recommended in International Council for Harmonisation (ICH)-M3(R2) guidelines. […] These events were considered to be dose limiting and related to LTI-03. There was no evidence that the TEAEs in the 3 subjects described previously were secondary to an allergic response. In the 20 mg QD MAD cohorts there were mild decreases in FEV1 in two subjects that were not associated with TEAEs. These were not considered to be dose limiting. There were no serious adverse events (SAEs). All TEAEs were resolved 7 days after the treatment period. Further details can be ...

Q: For `CC(C)[C@H](NC(=O)[C@@H](NC(=O)[C@H](Cc1ccccc1)NC(=O)[C@@H](NC(=O)[C@@H](NC(=O)[C@@H](N)Cc1ccccc1)[C@@H](C)O)[C@@H](C)O)[C@@H](C)O)C(=O)N[C@H](C(=O)O)[C@@H](C)O` [LTI-03] (H-FTTFTVT-OH; N-terminus and C-terminus assumed), which “no observed adverse effect level (NOAEL), achieved delivered dose” value (Sprague Dawley rats) is on record?
A: The value was 109.3 mg/kg/day.

Q: What about the “no observed adverse effect level (NOAEL), achieved delivered dose” value (dog) of the same compound?
A: Its value is 46.1 mg/kg/day.

Q: What about the “tolerability, 3 lower dose MAD cohorts” value (Healthy Adult Subjects; healthy adults, 2.5 mg QD, 5 mg QD, 5 mg BID inhaled for up to 14 days, ref study LTI-03-1001) of the same compound?
A: The value was “well tolerated”.

Q: What about the “TEAEs secondary to pulmonary airflow limitation, 40 mg QD MAD cohort” value (Healthy Adult Subjects; in vivo) of the same compound?
A: The value was “dose limiting”.
